Reference: patent US4195171A, “Derivatives of an antibiotic XK-62-2 and process for the production thereof” (Abbott Laboratories, priority 1975, dated 1980)
≈ marks a conversion by molar mass, not a printed value.

What was measured:
Assay in all cases: Antibacterial spectrum, MIC by agar dilution method
Type in all cases: cell-based
[1] = system: Pseudomonas aeruginosa KY 8511; details: KY8511, pH 7.2, strain produces gentamicin acetyltransferase Type I, read-out: Minimum Inhibitory Concentration
Source text: (§1) XK-62-2, 1-N-[L-(-)-α-hydroxy-γ-aminobutyryl] XK-62-2, Compounds (I-1), (I-2), (II-1) and (II-2) against various Gram-negative and Gram-positive bacteria determined by agar dilution method at pH 7.2.
(§2) ^2 produces gentamicin acetyltransferase Type I

Escherichia coli KY 8348 = details: KY8348, pH 7.2, strain produces gentamicin acetyltransferase Type I, read-out: Minimum Inhibitory Concentration
Source text: as §1, §2

[2] = system: Escherichia coli KY Z-343; details: KYZ343, pH 7.2, strain produces kanamycin acetyltransferase, read-out: Minimum Inhibitory Concentration
Source text: as §1
(§3) ^1 produces kanamycin acetyltransferase

[3] = system: Pseudomonas aeruginosa KY 8510; details: KY8510, agar dilution, pH 7.2, strain produces kanamycin acetyltransferase, read-out: Minimum Inhibitory Concentration
Source text: as §1, §3

[4] = system: Pseudomonas aeruginosa KY 8516; details: KY8516, agar dilution, pH 7.2, strain produces kanamycin acetyltransferase, read-out: Minimum Inhibitory Concentration
Source text: as §1, §3

[5] = system: Serratia marcescens POE 1065; details: POE1065, agar dilution, pH 7.2, strain produces kanamycin acetyltransferase, read-out: Minimum Inhibitory Concentration
Source text: as §1, §3

[6] = system: Staphylococcus aureus Smith; details: pH 7.2, read-out: Minimum Inhibitory Concentration
Source text: as §1

Escherichia coli T-5 = details: T5, agar dilution, pH 7.2, read-out: Minimum Inhibitory Concentration
Source text: as §1

[7] = system: Pseudomonas aeruginosa No. 12; details: pH 7.2, read-out: Minimum Inhibitory Concentration
Source text: as §1

Sarcina lutea ATCC 9341 = details: Micrococcus luteus, ATCC9341, pH 7.2, read-out: Minimum Inhibitory Concentration
Source text: as §1

Escherichia coli T-2 = details: T2, pH 7.2, read-out: Minimum Inhibitory Concentration
Source text: as §1

Escherichia coli Juhl = details: agar dilution, pH 7.2, read-out: Minimum Inhibitory Concentration
Source text: as §1

[8] = system: Pseudomonas aeruginosa BMH 10; details: BMH10, pH 7.2, read-out: Minimum Inhibitory Concentration
Source text: as §1

[9] = system: Salmonella typhimurium E-9; details: Salmonella enterica, pH 7.2, read-out: Minimum Inhibitory Concentration
Source text: as §1

[10] = system: Salmonella enteritidis G-14; details: Salmonella enterica, agar dilution, pH 7.2, read-out: Minimum Inhibitory Concentration
Source text: as §1

[11] = system: Klebsiella pneumoniae No. 8045; details: pH 7.2, read-out: Minimum Inhibitory Concentration
Source text: as §1

Proteus vulgaris 6897 = details: pH 7.2, read-out: Minimum Inhibitory Concentration
Source text: as §1

[12] = system: Pseudomonas aeruginosa NC-5; details: NC5, agar dilution, pH 7.2, read-out: Minimum Inhibitory Concentration
Source text: as §1

[13] = system: Shigella sonnei ATCC 9290; details: ATCC9290, pH 7.2, read-out: Minimum Inhibitory Concentration
Source text: as §1

Proteus rettgeri KY 4288 = details: Providencia rettgeri, KY4288, pH 7.2, read-out: Minimum Inhibitory Concentration
Source text: as §1

[14] = system: Staphylococcus aureus 209 P; details: pH 7.2, read-out: Minimum Inhibitory Concentration
Source text: as §1

[15] = system: Pseudomonas aeruginosa E-2; details: E2, agar dilution, pH 7.2, read-out: Minimum Inhibitory Concentration
Source text: as §1

Serratia sp T-55 = details: T55, pH 7.2, read-out: Minimum Inhibitory Concentration
Source text: as §1

[16] = system: Pseudomonas aeruginosa BMH 1; details: BMH1, pH 7.2, read-out: Minimum Inhibitory Concentration
Source text: as §1

[17] = system: bacillus subtilis ATCC 6633; details: ATCC6633, pH 7.2, read-out: Minimum Inhibitory Concentration
Source text: as §1

Proteus mirabilis 1287 = details: pH 7.2, read-out: Minimum Inhibitory Concentration
Source text: as §1

Proteus morganii KY 4298 = details: Morganella morganii, KY4298; agar dilution, pH 7.2; read-out: Minimum Inhibitory Concentration
Source text: as §1

[18] = system: Streptococcus faecalis ATCC 10541; details: Enterococcus faecalis, ATCC10541, pH 7.2, read-out: Minimum Inhibitory Concentration
Source text: as §1

[19] = system: Pseudomonas aeruginosa KY Z-444; details: KYZ444, agar dilution, pH 7.2, strain produces 6N-acetyltransferase Type III, read-out: Minimum Inhibitory Concentration
Source text: as §1
(§4) ^8 produces 6N-acetyltransferase Type III

[20] = system: Pseudomonas aeruginosa Z-445; details: Z445, pH 7.2, strain produces 6N-acetyltransferase Type III, read-out: Minimum Inhibitory Concentration
Source text: as §1, §4

[21] = system: Escherichia coli KY Z-338; details: KYZ338, pH 7.2, strain produces gentamicin adenyltransferase, read-out: Minimum Inhibitory Concentration
Source text: as §1
(§5) ^4 produces gentamicin adenyltransferase

[22] = system: Klebsiella pneumoniae Y-60; details: Y60, pH 7.2, strain produces gentamicin adenyltransferase, read-out: Minimum Inhibitory Concentration
Source text: as §1, §5

[23] = system: Klebsiella pneumoniae Y-58; details: Y58, pH 7.2, strain produces gentamicin adenyltransferase, read-out: Minimum Inhibitory Concentration
Source text: as §1, §5

## CC1(O)COC(OC2C(NC(=O)C(O)CN)CC(N)C(OC3OC(CN)CCC3N)C2O)C(O)C1N (racemic) [Compound I-1, 3"-N, 6'-N-didemethyl-1-N-(DL-α-hydroxy-β-aminopropionyl) XK-62-2]
[1]
  MIC: 0.78 µg/mL (≈ 1.49 µM)
Escherichia coli KY 8348
  MIC: 0.4 µg/mL (≈ 0.765 µM)
[2]
  MIC: 0.4 µg/mL (≈ 0.765 µM)
[3]
  MIC: 12.5 µg/mL (≈ 23.9 µM)
[4]
  MIC: 50 µg/mL (≈ 95.7 µM)
[5]
  MIC: 50 µg/mL (≈ 95.7 µM)
[6]
  MIC: 0.2 µg/mL (≈ 0.383 µM)
Escherichia coli T-5
  MIC: 1.56 µg/mL (≈ 2.99 µM)
[7]
  MIC: 0.4 µg/mL (≈ 0.765 µM)
Sarcina lutea ATCC 9341
  MIC: 0.78 µg/mL (≈ 1.49 µM)
Escherichia coli T-2
  MIC: 1.56 µg/mL (≈ 2.99 µM)
Escherichia coli Juhl
  MIC: 1.56 µg/mL (≈ 2.99 µM)
[8]
  MIC: 0.4 µg/mL (≈ 0.765 µM)
[9]
  MIC: 0.78 µg/mL (≈ 1.49 µM)
[10]
  MIC: 6.25 µg/mL (≈ 12 µM)
[11]
  MIC: 0.4 µg/mL (≈ 0.765 µM)
Proteus vulgaris 6897
  MIC: 6.25 µg/mL (≈ 12 µM)
[12]
  MIC: 0.78 µg/mL (≈ 1.49 µM)
[13]
  MIC: 3.12 µg/mL (≈ 5.97 µM)
Proteus rettgeri KY 4288
  MIC: 0.78 µg/mL (≈ 1.49 µM)
[14]
  MIC: 0.2 µg/mL (≈ 0.383 µM)
[15]
  MIC: 1.56 µg/mL (≈ 2.99 µM)
Serratia sp T-55
  MIC: 3.12 µg/mL (≈ 5.97 µM)
[16]
  MIC: 0.78 µg/mL (≈ 1.49 µM)
[17]
  MIC: 0.1 µg/mL (≈ 0.191 µM)
Proteus mirabilis 1287
  MIC: 12.5 µg/mL (≈ 23.9 µM)
Proteus morganii KY 4298
  MIC: 1.56 µg/mL (≈ 2.99 µM)
[18]
  MIC: 12.5 µg/mL (≈ 23.9 µM)
[19]
  MIC: 1.56 µg/mL (≈ 2.99 µM)
[20]
  MIC: 6.25 µg/mL (≈ 12 µM)
[21]
  MIC: 0.78 µg/mL (≈ 1.49 µM)
[22]
  MIC: 0.78 µg/mL (≈ 1.49 µM)
[23]
  MIC: 0.78 µg/mL (≈ 1.49 µM)
